Experimental data from US12378243B2, “Quinoline compounds as inhibitors of KRAS” (Incyte Corporation, priority 2021, dated 2025).

What was measured:
[1] = molecular target: KRAS G12V mutant (Homo sapiens, UniProt P01116, G12V); assay: GDP-GTP exchange assay, KRAS G12V; type: biochemical; conditions: bodipy loaded KRAS G12V 2.5 nM; 3 hours incubation after adding GppNHp-SOS1 mixture; read-out: G12V_exchange
[2] = test system: Caco-2 cells; assay: Caco2 assay (permeability, A-B); type: in vitro ADME; conditions: Papp absorptive direction (A-B), test compound 50 μM, 120 minutes at 37° C.
Method: Caco-2 cells are grown at 37° C. in an atmosphere of 5% CO2 in DMEM growth medium supplemented with 10% (v/v) fetal bovine serum, 1% (v/v) nonessential amino acids, penicillin (100 U/mL), and streptomycin (100 μg/mL). Confluent cell monolayers are subcultured every 7 days or 4 days for Caco-2 by treatment with 0.05% trypsin containing […]. Caco-2 cells are seeded in 96-well Transwell plates. The seeding density for Caco-2 cells is 14,000 cells/well. DMEM growth medium is replaced every other day after seeding. Cell monolayers are used for transport assays between 22 and 25 days for Caco-2 cells.
Cell culture medium is removed and replaced with HBSS. To measure the TEER, the HBSS is added into the donor compartment (apical side) and receiver compartment (basolateral side). The TEER is measured by using a REMS Autosampler to ensure the integrity of the cell monolayers. Caco-2 cell monolayers with TEER values ≥300 Ω·cm^2 are used for transport experiments. To determine the Papp in the absorptive direction (A-B), solution of test compound (50 μM) in HBSS is added to the donor compartment (apical side), while HBSS solution with 4% BSA is added to the receiver compartment (basolateral side). The apical volume was 0.075 mL, and the basolateral volume is 0.25 mL. The incubation period is 120 minutes at 37° C. in an atmosphere of 5% CO2. At the end of the incubation period, samples from the donor and receiver sides are removed and an equal volume of acetonitrile is added for protein precipitation. The supernatants are collected after centrifugation (3000 rpm, Allegra X-14R Centrifuge from Beckman Coulter, Indianapolis, IN) for LCMS analysis. The permeability value is determined according to the equation:
[formula] • where the flux rate (F, mass/time) is calculated from the slope of cumulative amounts of compound of interest on the receiver side, SA is the surface area of the cell membrane, VD is the donor volume, and MD is the initial amount of the solution in the donor chamber.
The symbol “+” indicates a Caco-2 value of […], “++” indicates a Caco-2 value of >0.5 but ≤1; and “+++” indicates a Caco-2 value of >1. “NA” indicates IC50 not available.

[3] = molecular target: KRAS G12D (Homo sapiens, UniProt P01116, G12D); assay: GDP-GTP exchange assay, KRAS G12D; type: biochemical; conditions: bodipy-loaded KRAS G12D 2.5 nM, GppNHp 500 uM, SOS1 150 nM; 4 hours pre-incubation, 2 hours incubation; read-out: G12D_exchange
KRAS G12D, sequence (P01116 1-188 isoform P01116-2 G12D): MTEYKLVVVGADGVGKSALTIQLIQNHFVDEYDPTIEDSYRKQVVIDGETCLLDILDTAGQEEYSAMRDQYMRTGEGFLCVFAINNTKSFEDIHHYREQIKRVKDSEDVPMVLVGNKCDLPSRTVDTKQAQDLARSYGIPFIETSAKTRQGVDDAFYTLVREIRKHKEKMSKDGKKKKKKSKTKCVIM
Method: Inhibitors were serially diluted in DMSO and a volume of 0.1 μL was transferred to the wells of a black low volume 384-well plate. […] The exchange was initiated by the addition of a 5 μL/well volume containing 1 mM GppNHp and 300 nM SOS1 in assay buffer. […] The reaction plates were incubated at ambient temperature for 2 hours, a time estimated for complete GDP-GTP exchange in the absence of inhibitor.
Either GraphPad prism or Genedata Screener SmartFit was used to analyze the data. The IC50 values were derived by fitting the data to a four parameter logistic equation producing a sigmoidal dose-response curve with a variable Hill coefficient.
“NA” indicates IC50 not available.

KRAS G12V mutant, sequence (P01116 1-188 isoform P01116-2 G12V): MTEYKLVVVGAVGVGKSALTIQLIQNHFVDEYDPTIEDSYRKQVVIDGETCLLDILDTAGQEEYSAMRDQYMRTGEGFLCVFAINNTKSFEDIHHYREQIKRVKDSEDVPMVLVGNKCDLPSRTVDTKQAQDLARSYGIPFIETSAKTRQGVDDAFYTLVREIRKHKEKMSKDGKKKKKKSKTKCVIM

With `Cc1cc2c(nc(O[C@@H](C)[C@@H]3CCCN3C)c3cc(CN4CCOC4=O)n([C@H]4[C@H]5CN[C@@H]4C5)c32)c(F)c1-c1cc(O)cc2ccccc12` [Example 5, 3-((1-((1R,4R,5S)-2-Azabicyclo[2.1.1]hexan-5-yl)-6-fluoro-7-(3-hydroxynaphthalen-1-yl)-8-methyl-4-((S)-1-((S)-1-methylpyrrolidin-2-yl)ethoxy)-1H-pyrrolo[3,2-c]quinolin-2-yl)methyl)oxazolidin-2-one] the IC50 [1] was less than 0.1 µM, the Caco-2 ([2]; Table 3) was “+ (a Caco-2 value of 50.5)” and the IC50 [3] was less than 0.1 µM.
In the case of `C[C@H](Oc1nc2c(F)c(-c3cccc4ccc(F)c(F)c34)c(CCC#N)cc2c2c1cc(CCC(=O)N1CCC1)n2[C@H]1[C@H]2CN[C@@H]1C2)[C@@H]1CCCN1C` (single isomer, unassigned) [Example 20], the IC50 [1] is reported as less than 0.1 µM, the Caco-2 ([2]; Table 3) is reported as “+ (a Caco-2 value of 50.5)” and the IC50 [3] is reported as less than 0.1 µM.
In the case of `Cc1cc2c(O[C@@H](C)[C@@H]3CCCN3C)nc3c(F)c(-c4cccc5ccc(F)cc45)c(CCC#N)cc3c2n1[C@H]1[C@H]2CN[C@@H]1C2` [Example 27, 3-(1-((1R,4R,5S)-2-Azabicyclo[2.1.1]hexan-5-yl)-6-fluoro-7-(7-fluoronaphthalen-1-yl)-2-methyl-4-((S)-1-((S)-1-methylpyrrolidin-2-yl)ethoxy)-1H-pyrrolo[3,2-c]quinolin-8-yl)propanenitrile], the IC50 [1] is reported as less than 0.1 µM, the Caco-2 ([2]; Table 3) is reported as “+ (a Caco-2 value of 50.5)” and the IC50 [3] is reported as less than 0.1 µM.
In the case of `CCOC(=O)N1CCC[C@@H]1c1cc2c(-c3ccc(C(C)(C)O)nc3)nc3c(F)c(-c4cccc(Cl)c4Cl)c(CCC#N)cc3c2n1[C@H]1[C@H]2CN[C@@H]1C2` [Example 41, Ethyl (2R)-2-(1-((1R,4R,5S)-2-azabicyclo[2.1.1]hexan-5-yl)-8-(2-cyanoethyl)-7-(2,3-dichlorophenyl)-6-fluoro-4-(6-(2-hydroxypropan-2-yl)pyridin-3-yl)-1H-pyrrolo[3,2-c]quinolin-2-yl)pyrrolidine-1-carboxylate], the IC50 [1] is reported as less than 0.1 µM, the Caco-2 ([2]; Table 4) is reported as “+++ (a Caco-2 value of >1)” and the IC50 [3] is reported as less than 0.1 µM.
In the case of `Cc1nc2c(F)c(-c3cccc(Cl)c3Cl)c(CCC#N)cc2c2c1cc([C@@H](C)NC(=O)C(F)F)n2[C@H]1[C@H]2CN[C@@H]1C2` [Example 56, N-((1R)-1-(1-((1R,4R,5S)-2-Azabicyclo[2.1.1]hexan-5-yl)-8-(2-cyanoethyl)-7-(2,3-dichlorophenyl)-6-fluoro-4-methyl-1H-pyrrolo[3,2-c]quinolin-2-yl)ethyl)-2,2-difluoroacetamide], the IC50 [1] is reported as less than 0.1 µM, the Caco-2 ([2]; Table 4) is reported as “+++ (a Caco-2 value of >1)” and the IC50 [3] is reported as less than 0.1 µM.
With `CNC(=O)c1ccc(-c2nc3c(F)c(-c4cccc(Cl)c4C)c(CCC#N)cc3c3c2cc([C@@H](C)n2ccncc2=O)n3[C@H]2[C@H]3CN[C@@H]2C3)cn1` (single isomer, unassigned) [Example 36] the IC50 [1] was less than 0.1 µM, the Caco-2 ([2]; Table 4) was “+++ (a Caco-2 value of >1)” and the IC50 [3] was less than 0.1 µM.
In the case of `Cc1nc2c(F)c(-c3cccc(Cl)c3Cl)c(CCC#N)cc2c2c1cc([C@@H](C)NC(=O)N1CC(F)(F)C1)n2[C@H]1[C@H]2CN[C@@H]1C2` [Example 70, N-((1R)-1-(1-((1R,4R,5S)-2-azabicyclo[2.1.1]hexan-5-yl)-8-(2-cyanoethyl)-7-(2,3-dichlorophenyl)-6-fluoro-4-methyl-1H-pyrrolo[3,2-c]quinolin-2-yl)ethyl)-3,3-difluoroazetidine-1-carboxamide], the IC50 [1] is reported as less than 0.1 µM, the Caco-2 ([2]; Table 4) is reported as “+++ (a Caco-2 value of >1)” and the IC50 [3] is reported as less than 0.1 µM.
For `C[C@H](Oc1nc2c(F)c(-c3cc(O)cc4ccccc34)c(CCC#N)cc2c2c1cc(-c1cccnc1)n2C1C2CNC1C2)[C@@H]1CCCN1C` (stereo partly drawn) [Example 19, 3-(1-((endo)-2-Azabicyclo[2.1.1]hexan-5-yl)-6-fluoro-7-(3-hydroxynaphthalen-1-yl)-4-((S)-1-((S)-1-methylpyrrolidin-2-yl)ethoxy)-2-(pyridin-3-yl)-1H-pyrrolo[3,2-c]quinolin-8-yl)propanenitrile], the IC50 [1] was less than 0.1 µM, the Caco-2 ([2]; Table 3) was “+ (a Caco-2 value of 50.5)” and the IC50 [3] was less than 0.1 µM.
In the case of `CC(=O)N1CCC[C@@H]1c1cc2c(-c3ccnc(C)c3)nc3c(F)c(-c4cccc5c4C(C#N)CCC5)c(C)cc3c2n1[C@H]1[C@H]2CN[C@@H]1C2` (single isomer, unassigned) [Example 35], the IC50 [1] is reported as less than 0.1 µM, the Caco-2 ([2]; Table 4) is reported as “++ (a Caco-2 value of >0.5 but ≤1)” and the IC50 [3] is reported as less than 0.1 µM.
With `COC(=O)N1CCC[C@@H]1c1cc2c(-c3ccc(C(C)(C)O)nc3)nc3c(F)c(-c4cccc(Cl)c4Cl)c(CCC#N)cc3c2n1[C@H]1[C@H]2CN[C@@H]1C2` [Example 40, Methyl (2R)-2-(1-((1R,4R,5S)-2-azabicyclo[2.1.1]hexan-5-yl)-8-(2-cyanoethyl)-7-(2,3-dichlorophenyl)-6-fluoro-4-(6-(2-hydroxypropan-2-yl)pyridin-3-yl)-1H-pyrrolo[3,2-c]quinolin-2-yl)pyrrolidine-1-carboxylate] the IC50 [1] was less than 0.1 µM, the Caco-2 ([2]; Table 4) was “++ (a Caco-2 value of >0.5 but ≤1)” and the IC50 [3] was less than 0.1 µM.
`CNC(=O)c1ccc(-c2nc3c(F)c(-c4cccc(Cl)c4Cl)c(CCC#N)cc3c3c2cc([C@@H](C)n2ccncc2=O)n3[C@H]2[C@H]3CN[C@@H]2C3)cc1F` (single isomer, unassigned) [Example 54b] was tested, and the IC50 [1] was less than 0.1 µM, the Caco-2 ([2]; Table 4) was “+++ (a Caco-2 value of >1)” and the IC50 [3] was less than 0.1 µM.
In the case of `CN(C)C1(C)CN(c2nc3c(F)c(-c4cccc5ccc(F)cc45)c(CCC#N)cc3c3c2cc(CN2CCOCC2=O)n3[C@H]2[C@H]3CN[C@@H]2C3)C1` [Example 17, 3-(1-((1R,4R,5S)-2-Azabicyclo[2.1.1]hexan-5-yl)-4-(3-(dimethylamino)-3-methylazetidin-1-yl)-6-fluoro-7-(7-fluoronaphthalen-1-yl)-2-((3-oxomorpholino)methyl)-1H-pyrrolo[3,2-c]quinolin-8-yl)propanenitrile], the IC50 [1] is reported as less than 0.1 µM, the Caco-2 ([2]; Table 3) is reported as “+ (a Caco-2 value of 50.5)” and the IC50 [3] is reported as less than 0.1 µM.
With `C[C@H](c1cc2c(-c3ccc(C(C)(C)O)nc3)nc3c(F)c(-c4cccc(Cl)c4Cl)c(CCC#N)cc3c2n1[C@H]1[C@H]2CN[C@@H]1C2)n1ccncc1=O` [Example 50, 3-(1-((1R,4R,5S)-2-Azabicyclo[2.1.1]hexan-5-yl)-7-(2,3-dichlorophenyl)-6-fluoro-4-(6-(2-hydroxypropan-2-yl)pyridin-3-yl)-2-((R)-1-(2-oxopyrazin-1(2H)-yl)ethyl)-1H-pyrrolo[3,2-c]quinolin-8-yl)propanenitrile] the IC50 [1] was less than 0.1 µM, the Caco-2 ([2]; Table 4) was “+++ (a Caco-2 value of >1)” and the IC50 [3] was less than 0.1 µM.
For `Cc1cnc(-c2nc3c(F)c(-c4cccc(Cl)c4C)c(CCC#N)cc3c3c2cc([C@@H](C)n2ccncc2=O)n3[C@H]2[C@H]3CN[C@@H]2C3)cn1` (single isomer, unassigned) [Example 38], the IC50 [1] was less than 0.1 µM, the Caco-2 ([2]; Table 4) was “+++ (a Caco-2 value of >1)” and the IC50 [3] was less than 0.1 µM.
In the case of `COC(=O)N1CCC[C@@H]1c1c(Cl)c2c(-c3ccc(C(C)(C)O)nc3)nc3c(F)c(-c4cccc(Cl)c4Cl)c(CCC#N)cc3c2n1[C@H]1[C@H]2CN[C@@H]1C2` [Example 53, Methyl (2R)-2-(1-((1R,4R,5S)-2-azabicyclo[2.1.1]hexan-5-yl)-3-chloro-8-(2-cyanoethyl)-7-(2,3-dichlorophenyl)-6-fluoro-4-(6-(2-hydroxypropan-2-yl)pyridin-3-yl)-1H-pyrrolo[3,2-c]quinolin-2-yl)pyrrolidine-1-carboxylate], the IC50 [1] is reported as less than 0.1 µM, the Caco-2 ([2]; Table 4) is reported as “+++ (a Caco-2 value of >1)” and the IC50 [3] is reported as less than 0.1 µM.
For `Cc1cnc(-c2nc3c(F)c(-c4cc(O)cc5ccccc45)c(CCC#N)cc3c3c2cc(C)n3[C@H]2[C@H]3CN[C@@H]2C3)cn1` (single isomer, unassigned) [Example 14], the IC50 [1] was less than 0.1 µM, the Caco-2 ([2]; Table 3) was “++ (a Caco-2 value of >0.5 but ≤1)” and the IC50 [3] was less than 0.1 µM.
